# In PubChem BioAssay AID330 (DTP/NCI, 2004):
# Values joined by “and” are separate entries in the source; they are usually repeats but may differ in a detail not shown here. Equal values may be shown once. Inconclusive results and toxic doses are left out.
# Test system: P388 leukemia ip, CD2F1 mice, survival T/C
# Assay: NCI In Vivo Anticancer Drug Screen. Data for tumor model P388 Leukemia (intraperitoneal) in CD2F1 (CDF1) mice
# Settings: endpoint: median survival time, higher = longer survival
# Summary of the method: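 Mice carrying the transplanted tumor received test compound or vehicle. Survival was recorded in each group, and the value is the treated-group measurement divided by that of the vehicle-treated control group.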
# [1] = dose: 60.0 mg/kg/injection, schedule: Q01DX005 (ip), vehicle: Klucel (hydroxypropylcellulose) (HPC)
# [2] = dose: 120.0 mg/kg/injection, schedule: Q01DX005 (ip), vehicle: Klucel (hydroxypropylcellulose) (HPC)
# [3] = dose: 240.0 mg/kg/injection, schedule: Q01DX005 (ip), vehicle: Klucel (hydroxypropylcellulose) (HPC)
# [4] = dose: 50.0 mg/kg/injection, schedule: Q01DX009 (ip), vehicle: saline
# [5] = dose: 100.0 mg/kg/injection, schedule: Q01DX009 (ip), vehicle: saline
# [6] = dose: 200.0 mg/kg/injection, schedule: Q01DX009 (ip), vehicle: saline
# [7] = dose: 25.0 mg/kg/injection, schedule: Q01DX009 (ip), vehicle: saline
# [8] = dose: 50.0 mg/kg/injection, schedule: Q01DX009 (ip), vehicle: suspension in saline
# [9] = dose: 100.0 mg/kg/injection, schedule: Q01DX009 (ip), vehicle: suspension in saline
# [10] = dose: 25.0 mg/kg/injection, schedule: Q01DX009 (ip), vehicle: saline with Tween-80
# [11] = dose: 50.0 mg/kg/injection, schedule: Q01DX009 (ip), vehicle: saline with Tween-80
# [12] = dose: 100.0 mg/kg/injection, schedule: Q01DX009 (ip), vehicle: saline with Tween-80
# [13] = dose: 200.0 mg/kg/injection, schedule: Q04DX003 (ip), vehicle: Klucel (hydroxypropylcellulose) (HPC)
# [14] = dose: 50.0 mg/kg/injection, schedule: Q01DX005 (ip), vehicle: saline
# [15] = dose: 100.0 mg/kg/injection, schedule: Q01DX005 (ip), vehicle: saline
# [16] = dose: 200.0 mg/kg/injection, schedule: Q01DX005 (ip), vehicle: saline
structure (smiles),measurement,setting,value
Cc1cc(C)nc(C2=C(O)c3ccccc3C2=O)c1,T/C,[1],106 % of control
same,T/C,[2],99 % of control
same,T/C,[3],87 % of control and 96 % of control
Cc1cc(=O)n(-c2ccccc2)c(=O)[nH]1,T/C,[4],104 % of control
same,T/C,[5],111 % of control
same,T/C,[6],111 % of control
O=C(O)C(F)(F)F.O=C(O)C(F)(F)F.O=C(O)C(F)(F)F.O=C(O)C(F)(F)F.[Rh].[Rh],T/C,[7],86 % of control
same,T/C,[4],110 % of control
same,T/C,[8],104 % of control
same,T/C,[5],122 % of control
same,T/C,[9],123 % of control
Nc1ccc(-c2cc(O)ccc2N)cc1,T/C,[10],100 % of control
same,T/C,[11],117 % of control
same,T/C,[12],110 % of control
CSc1ccc(NC(=S)SCc2ccc3c(c2)OCO3)cc1Cl,T/C,[8],105 % of control
same,T/C,[9],101 % of control
same,T/C,"dose: 200.0 mg/kg/injection, schedule: Q01DX009 (ip), vehicle: suspension in saline",98 % of control
Cc1cc(OC(=O)N2CCCCC2)c(C(C)C)cc1[N+](C)(C)C,T/C,"dose: 0.02 mg/kg/injection, schedule: Q01DX009 (ip), vehicle: saline",100 % of control
same,T/C,"dose: 0.03 mg/kg/injection, schedule: Q01DX009 (ip), vehicle: saline",100 % of control
same,T/C,"dose: 0.06 mg/kg/injection, schedule: Q01DX009 (ip), vehicle: saline",90 % of control
Nc1nc(SCC(=O)O)[nH]c(=O)c1NS(=O)(=O)c1ccccc1,T/C,[1],108 % of control
same,T/C,[2],109 % of control
COc1cc2c(cc1OC)C(C)=NCC2,T/C,"dose: 25.0 mg/kg/injection, schedule: Q01DX001 (ip), vehicle: saline",104 % of control
same,T/C,"dose: 50.0 mg/kg/injection, schedule: Q01DX001 (ip), vehicle: saline",95 % of control
same,T/C,"dose: 100.0 mg/kg/injection, schedule: Q01DX001 (ip), vehicle: saline",94 % of control
same,T/C,"dose: 200.0 mg/kg/injection, schedule: Q01DX001 (ip), vehicle: saline",98 % of control
COC(=O)n1c(=O)oc2c(Br)cc(Br)cc21,T/C,"dose: 50.0 mg/kg/injection, schedule: Q01DX005 (ip), vehicle: Klucel (hydroxypropylcellulose) (HPC)",103 % of control
same,T/C,"dose: 100.0 mg/kg/injection, schedule: Q01DX005 (ip), vehicle: Klucel (hydroxypropylcellulose) (HPC)",106 % of control
same,T/C,"dose: 200.0 mg/kg/injection, schedule: Q01DX005 (ip), vehicle: Klucel (hydroxypropylcellulose) (HPC)",103 % of control
Cc1ccc2nc(NC(=S)NCCNC(=S)Nc3ccc4cc(C)ccc4n3)ccc2c1,T/C,"dose: 50.0 mg/kg/injection, schedule: Q01DX009 (ip), vehicle: Klucel (hydroxypropylcellulose) (HPC)",94 % of control
same,T/C,"dose: 100.0 mg/kg/injection, schedule: Q01DX009 (ip), vehicle: Klucel (hydroxypropylcellulose) (HPC)",92 % of control
same,T/C,"dose: 200.0 mg/kg/injection, schedule: Q01DX009 (ip), vehicle: Klucel (hydroxypropylcellulose) (HPC)",90 % of control
Cc1cc(Nc2ccc(N(CCCl)CCCl)cc2)c(C)cc1O,T/C,[13],159 % of control
NC(=O)C/C(N)=N/O,T/C,[14],98 % of control
same,T/C,[15],101 % of control
same,T/C,[16],100 % of control
Cc1cc(OCC(=O)N/N=C/c2ccc(N(CCCl)CCCl)cc2)c2c(=O)c3ccccc3oc2c1,T/C,[1],94 % of control
same,T/C,[2],117 % of control
same,T/C,[3],88 % of control
O=Cc1nnc(-c2ccccc2)o1,T/C,"dose: 12.5 mg/kg/injection, schedule: Q01DX009 (ip), vehicle: DMSO",90 % of control
same,T/C,"dose: 25.0 mg/kg/injection, schedule: Q01DX009 (ip), vehicle: DMSO",98 % of control
same,T/C,"dose: 50.0 mg/kg/injection, schedule: Q01DX009 (ip), vehicle: DMSO",93 % of control
COc1ccc(NC(=S)Nc2ccccn2)cc1,T/C,"dose: 100.0 mg/kg/injection, schedule: Q04DX003 (ip), vehicle: saline with Tween-80",108 % of control
same,T/C,"dose: 200.0 mg/kg/injection, schedule: Q04DX003 (ip), vehicle: saline with Tween-80",95 % of control
same,T/C,"dose: 400.0 mg/kg/injection, schedule: Q04DX003 (ip), vehicle: saline with Tween-80",112 % of control
O=C(Nc1ccc(Cl)cc1C(F)(F)F)Oc1ccc(-c2ccccc2)cc1Br,T/C,[4],95 % of control
same,T/C,[5],88 % of control
same,T/C,[6],97 % of control
O=C1Cc2csc3nc(=O)cc(n23)N1,T/C,[14],94 % of control
same,T/C,[15],97 % of control
same,T/C,[16],88 % of control
O=CC(=O)c1ccc(O)cc1,T/C,"dose: 18.8 mg/kg/injection, schedule: Q04DX003 (ip), vehicle: saline",101 % of control
same,T/C,"dose: 37.5 mg/kg/injection, schedule: Q04DX003 (ip), vehicle: saline",100 % of control
same,T/C,"dose: 75.0 mg/kg/injection, schedule: Q04DX003 (ip), vehicle: saline",103 % of control
same,T/C,"dose: 150.0 mg/kg/injection, schedule: Q04DX003 (ip), vehicle: saline",109 % of control
Oc1c(C(c2ccccc2)N2CCOCC2)ccc2ccccc12 (configuration not stated),T/C,[11],109 % of control
same,T/C,[12],109 % of control
same,T/C,"dose: 200.0 mg/kg/injection, schedule: Q01DX009 (ip), vehicle: saline with Tween-80",104 % of control
COc1ccc2c(c1O)-c1cccc3c1C(C2)N(CCOCCCl)CC3 (configuration not stated),T/C,"dose: 12.5 mg/kg/injection, schedule: Q04DX003 (ip), vehicle: water",99 % of control
same,T/C,"dose: 25.0 mg/kg/injection, schedule: Q04DX003 (ip), vehicle: water",107 % of control
same,T/C,"dose: 50.0 mg/kg/injection, schedule: Q04DX003 (ip), vehicle: water",101 % of control
same,T/C,"dose: 100.0 mg/kg/injection, schedule: Q04DX003 (ip), vehicle: water",104 % of control
CN=C/C(C(C)=O)=C(\C)O,T/C,"dose: 12.5 mg/kg/injection, schedule: Q01DX009 (ip), vehicle: saline",103 % of control
same,T/C,[7],105 % of control
same,T/C,[4],101 % of control and 106 % of control
same,T/C,[5],112 % of control and 91 % of control
O=C1CSC(c2ccccc2Br)N1c1nncs1 (configuration not stated),T/C,"dose: 60.0 mg/kg/injection, schedule: Q01DX005 (ip), vehicle: saline with Tween-80",101 % of control
same,T/C,"dose: 120.0 mg/kg/injection, schedule: Q01DX005 (ip), vehicle: saline with Tween-80",97 % of control
same,T/C,"dose: 240.0 mg/kg/injection, schedule: Q01DX005 (ip), vehicle: saline with Tween-80",93 % of control
Cc1c(COC(=O)NC(C)C)c(COC(=O)NC(C)C)c2n1CSC2,T/C,"dose: 6.25 mg/kg/injection, schedule: Q01DX005 (ip), vehicle: Klucel + Tween-80",154 % of control
same,T/C,"dose: 25.0 mg/kg/injection, schedule: Q01DX005 (ip), vehicle: Klucel + Tween-80",169 % of control and 173 % of control
O=C1NC(c2ccccc2)(c2ccccc2)C(=O)N1CCBr,T/C,"dose: 12.5 mg/kg/injection, schedule: Q04DX003 (ip), vehicle: saline",106 % of control
same,T/C,"dose: 25.0 mg/kg/injection, schedule: Q04DX003 (ip), vehicle: Klucel (hydroxypropylcellulose) (HPC)",96 % of control
same,T/C,"dose: 25.0 mg/kg/injection, schedule: Q04DX003 (ip), vehicle: saline",100 % of control
same,T/C,"dose: 50.0 mg/kg/injection, schedule: Q04DX003 (ip), vehicle: Klucel (hydroxypropylcellulose) (HPC)",105 % of control
same,T/C,"dose: 50.0 mg/kg/injection, schedule: Q04DX003 (ip), vehicle: saline",105 % of control
same,T/C,"dose: 100.0 mg/kg/injection, schedule: Q04DX003 (ip), vehicle: Klucel (hydroxypropylcellulose) (HPC)",100 % of control and 107 % of control
same,T/C,"dose: 100.0 mg/kg/injection, schedule: Q04DX003 (ip), vehicle: saline",104 % of control
same,T/C,[13],100 % of control and 96 % of control
same,T/C,"dose: 400.0 mg/kg/injection, schedule: Q04DX003 (ip), vehicle: Klucel (hydroxypropylcellulose) (HPC)",98 % of control and 99 % of control
N#Cc1cnn(-c2ccc([N+](=O)[O-])cc2[N+](=O)[O-])c1N,T/C,[4],101 % of control
same,T/C,[5],100 % of control
same,T/C,[6],108 % of control
CCOC1OCN(C(C)C)CC1(C)C (configuration not stated),T/C,[10],98 % of control
CCOC(=O)C(Cc1ccc(Oc2nc3ccccc3o2)cc1)NC(C)=O (configuration not stated),T/C,"dose: 25.0 mg/kg/injection, schedule: Q01DX001 (ip), vehicle: Klucel (hydroxypropylcellulose) (HPC)",110 % of control
same,T/C,"dose: 50.0 mg/kg/injection, schedule: Q01DX001 (ip), vehicle: Klucel (hydroxypropylcellulose) (HPC)",112 % of control
same,T/C,"dose: 100.0 mg/kg/injection, schedule: Q01DX001 (ip), vehicle: Klucel (hydroxypropylcellulose) (HPC)",109 % of control
